Laboratory results published in ChEMBL document CHEMBL3885861, “Open TG-GATES”.

Species: Rattus norvegicus
Experiment: Open TG-GATES - Regimen: Single
Type: toxicity, organism-based, Sprague-Dawley
Design: regimen Single, gender Male, age 6 weeks
Settings: in vivo, po, 40 mg/kg, route gavage, dose level Low; for APTT / Bas / Eos / Fbg / Hb / Ht / Lym / MCH / MCHC / MCV / Mono / Neu / PT / Plat / RBC / Ret / WBC: tissue Blood; for KIDNEY_L / KIDNEY_R / KIDNEY_TOTAL: tissue Kidney; for LIVER: tissue Liver; for A/G / ALP / ALT / AST / BUN / CRE / Ca / Cl / DBIL / GLC / IP / K / LDH / Na / PL / RALB / TBIL / TC / TG / TP / gamma-GTP: tissue Plasma

Compound: COc1ccc(Cc2nccc3cc(OC)c(OC)cc23)cc1OC [PAPAVERINE]
- TERMINAL_BW (3 h): 231 g
- APTT (3 h): 22.7 s
- Bas (3 h): 0%
- Eos (3 h): 0.8%
- Fbg (3 h): 308.6 mg/dL
- Hb (3 h): 13.3 g/dL
- Ht (3 h): 39.9%
- Lym (3 h): 77%
- MCH (3 h): 20.8 pg
- MCHC (3 h): 33.4%
- MCV (3 h): 62.1 fL
- Mono (3 h): 2.2%
- Neu (3 h): 19%
- PT (3 h): 15.5 s
- Plat (3 h): 111.6 x10_4/uL
- RBC (3 h): 643.2 x10_4/ul
- Ret (3 h): 8.1%
- WBC (3 h): 104.1 x10_2/uL
- KIDNEY_L (3 h): 0.9 g
- KIDNEY_R (3 h): 0.9 g
- KIDNEY_TOTAL (3 h): 1.9 g
- LIVER (3 h): 10.4 g
- A/G (3 h): 1.2
- ALP (3 h): 1691.2 IU/L
- ALT (3 h): 41.2 IU/L
- AST (3 h): 79 IU/L
- BUN (3 h): 13.4 mg/dL
- CRE (3 h): 0.1 mg/dL
- Ca (3 h): 11.1 mg/dL
- Cl (3 h): 107.2 meq/L
- DBIL (3 h): 0 mg/dL
- GLC (3 h): 179 mg/dL
- IP (3 h): 7.7 mg/dL
- K (3 h): 4 meq/L
- LDH (3 h): 190.4 IU/L
- Na (3 h): 141.6 meq/L
- PL (3 h): 135 mg/dL
- RALB (3 h): 3 g/dL
- TBIL (3 h): 0.006 mg/dL
- TC (3 h): 75.2 mg/dL
- TG (3 h): 65.6 mg/dL
- TP (3 h): 5.4 g/dL
- gamma-GTP (3 h): 1.6 IU/L
- TERMINAL_BW (6 h): 221.8 g
- APTT (6 h): 21.2 s
- Bas (6 h): 0%
- Eos (6 h): 0.8%
- Fbg (6 h): 322.4 mg/dL
- Hb (6 h): 13.4 g/dL
- Ht (6 h): 39.9%
- Lym (6 h): 78.2%
- MCH (6 h): 20.7 pg
- MCHC (6 h): 33.7%
- MCV (6 h): 61.5 fL
- Mono (6 h): 2.8%
- Neu (6 h): 16.8%
- PT (6 h): 15.8 s
- Plat (6 h): 129.6 x10_4/uL
- RBC (6 h): 647.8 x10_4/ul
- Ret (6 h): 7.6%
- WBC (6 h): 105.5 x10_2/uL
- KIDNEY_L (6 h): 1 g
- KIDNEY_R (6 h): 1 g
- KIDNEY_TOTAL (6 h): 1.9 g
- LIVER (6 h): 9.4 g
- A/G (6 h): 1.2
- ALP (6 h): 1422 IU/L
- ALT (6 h): 36.2 IU/L
- AST (6 h): 72.4 IU/L
- BUN (6 h): 10.6 mg/dL
- CRE (6 h): 0.1 mg/dL
- Ca (6 h): 11.1 mg/dL
- Cl (6 h): 106.8 meq/L
- DBIL (6 h): 0.002 mg/dL
- GLC (6 h): 179.8 mg/dL
- IP (6 h): 8.9 mg/dL
- K (6 h): 4.3 meq/L
- LDH (6 h): 161.2 IU/L
- Na (6 h): 140.6 meq/L
- PL (6 h): 124.6 mg/dL
- RALB (6 h): 3 g/dL
- TBIL (6 h): 0.012 mg/dL
- TC (6 h): 71.4 mg/dL
- TG (6 h): 64 mg/dL
- TP (6 h): 5.4 g/dL
- gamma-GTP (6 h): 2.2 IU/L
- TERMINAL_BW (9 h): 221.9 g
- APTT (9 h): 21 s
- Bas (9 h): 0%
- Eos (9 h): 1%
- Fbg (9 h): 325 mg/dL
- Hb (9 h): 13.5 g/dL
- Ht (9 h): 40.5%
- Lym (9 h): 78.6%
- MCH (9 h): 20.4 pg
- MCHC (9 h): 33.4%
- MCV (9 h): 61.2 fL
- Mono (9 h): 3%
- Neu (9 h): 16.6%
- PT (9 h): 15.4 s
- Plat (9 h): 114.2 x10_4/uL
- RBC (9 h): 661.8 x10_4/ul
- Ret (9 h): 7.6%
- WBC (9 h): 78.8 x10_2/uL
- KIDNEY_L (9 h): 1 g
- KIDNEY_R (9 h): 1 g
- KIDNEY_TOTAL (9 h): 1.9 g
- LIVER (9 h): 9.4 g
- A/G (9 h): 1.3
- ALP (9 h): 1463.2 IU/L
- ALT (9 h): 37 IU/L
- AST (9 h): 70.2 IU/L
- BUN (9 h): 11 mg/dL
- CRE (9 h): 0.1 mg/dL
- Ca (9 h): 11.1 mg/dL
- Cl (9 h): 107.4 meq/L
- DBIL (9 h): 0 mg/dL
- GLC (9 h): 183.6 mg/dL
- IP (9 h): 9.2 mg/dL
- K (9 h): 4 meq/L
- LDH (9 h): 150.2 IU/L
- Na (9 h): 140.6 meq/L
- PL (9 h): 133.6 mg/dL
- RALB (9 h): 3 g/dL
- TBIL (9 h): 0.02 mg/dL
- TC (9 h): 73.2 mg/dL
- TG (9 h): 69.8 mg/dL
- TP (9 h): 5.4 g/dL
- gamma-GTP (9 h): 1.6 IU/L
- TERMINAL_BW (24 h): 234.3 g
- APTT (24 h): 21.8 s
- Bas (24 h): 0%
- Eos (24 h): 0.8%
- Fbg (24 h): 309.2 mg/dL
- Hb (24 h): 13.5 g/dL
- Ht (24 h): 40.7%
- Lym (24 h): 82.6%
- MCH (24 h): 21.3 pg
- MCHC (24 h): 33.3%
- MCV (24 h): 63.9 fL
- Mono (24 h): 2.4%
- Neu (24 h): 13.2%
- PT (24 h): 16.3 s
- Plat (24 h): 114.1 x10_4/uL
- RBC (24 h): 636.4 x10_4/ul
- Ret (24 h): 7.1%
- WBC (24 h): 90.3 x10_2/uL
- KIDNEY_L (24 h): 1 g
- KIDNEY_R (24 h): 1 g
- KIDNEY_TOTAL (24 h): 2 g
- LIVER (24 h): 10.8 g
- A/G (24 h): 1.3
- ALP (24 h): 1546.4 IU/L
- ALT (24 h): 47 IU/L
- AST (24 h): 79 IU/L
- BUN (24 h): 16.2 mg/dL
- CRE (24 h): 0.1 mg/dL
- Ca (24 h): 10.6 mg/dL
- Cl (24 h): 107.4 meq/L
- DBIL (24 h): 0 mg/dL
- GLC (24 h): 195.4 mg/dL
- IP (24 h): 6.9 mg/dL
- K (24 h): 4.4 meq/L
- LDH (24 h): 207.6 IU/L
- Na (24 h): 142.8 meq/L
- PL (24 h): 126.6 mg/dL
- RALB (24 h): 3.1 g/dL
- TBIL (24 h): 0.004 mg/dL
- TC (24 h): 67.6 mg/dL
- TG (24 h): 123 mg/dL
- TP (24 h): 5.4 g/dL
- gamma-GTP (24 h): 1.2 IU/L
